The results in this text go back to US8163793B2, “Proline derivatives” (Hoffman-La Roche Inc., priority 2009, dated 2012).

Each structure is given as a SMILES string.

The target in test [1] is Cathepsin S (UniProt P25774). Briefly: Cathepsin enzyme inhibition assay (fluorogenic peptide substrate Z-Val-Val-Arg-AMC), Cathepsin S. The format is biochemical, human and mouse. Conditions: enzyme 1 nM, substrate 20 μM, pH 6.5; read-out: CatS IC50. A digest of the protocol: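 Compounds were combined with 1 nM human or mouse enzyme, and substrate then started the reaction. The buffer was potassium phosphate (100 mM, pH 6.5) containing EDTA-Na 5 mM, Triton X-100 0.001% and […] 5 mM.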

In test [2] the target is Cat L (UniProt P07711). Briefly: Cathepsin enzyme inhibition assay (fluorogenic peptide substrate Z-Val-Val-Arg-AMC), Cathepsin L. Type of test: biochemical, human and mouse. The following applies: enzyme 1 nM, substrate 20 μM, pH 6.5; read-out: CatL IC50. The procedure, abridged: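 Fluorogenic cleavage of Z-Val-Val-Arg-AMC (20 μM) by 1 nM Cat L was monitored at ex 360/em 465 nm for 20 min, the linear phase. The buffer was 100 mM potassium phosphate pH 6.5 with 5 mM EDTA and DTT. IC50 values were derived by standard methods, in μM.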

What is called IC50 is the point on the concentration scale where inhibition reaches its midpoint. As for `CC1(C(=O)N2C[C@H](S(=O)(=O)c3ccc(F)cc3C(F)(F)F)C[C@H]2C(=O)NC2(C#N)CC2)CC1` [Example 344, (2S,4R)-4-(4-Fluoro-2-trifluoromethyl-benzenesulfonyl)-1-(1-methyl-cyclopropanecarbonyl)-pyrrolidine-2-carboxylic acid (1-cyano-cyclopropyl)-amide], the results for the IC50 in test [1] and in test [2] were 0.54 nM and at least 25000 nM, respectively.
On the same counts, the results for `N#CC1(NC(=O)C2CC(S(=O)(=O)c3ccccc3C(F)(F)F)CN2c2cccc3ccccc23)CC1` (centres unmarked) [Example 345, 1-Naphthalen-1-yl-4-(2-trifluoromethyl-benzenesulfonyl)-pyrrolidine-2-carboxylic acid (1-cyano-cyclopropyl)-amide] are 0.915 nM and 70300 nM.
In the same order, the values of `N#CC1(NC(=O)[C@@H]2C[C@@H](S(=O)(=O)c3ccc(OCC(F)(F)F)cc3Cl)CN2C(=O)C2(c3ccc(Br)cc3)OCCO2)CC1` [Example 346, (2S,4R)-1-[2-(4-Bromo-phenyl)-[1,3]dioxolane-2-carbonyl]-4-[2-chloro-4-(2,2,2-trifluoro-ethoxy)-benzenesulfonyl]-pyrrolidine-2-carboxylic acid (1-cyano-cyclopropyl)-amide] are 0.101 nM and 28.5 nM.
On the same counts, the results for `N#CC1(NC(=O)[C@@H]2C[C@@H](S(=O)(=O)c3ccc(OCC(F)(F)F)cc3Cl)CN2C(=O)C2(c3cccc4ccccc34)CC2)CC1` [Example 347, (2S,4R)-4-[2-Chloro-4-(2,2,2-trifluoro-ethoxy)-benzenesulfonyl]-1-(1-naphthalen-1-yl-cyclopropanecarbonyl)-pyrrolidine-2-carboxylic acid (1-cyano-cyclopropyl)-amide] are 0.855 nM and 60 nM.
Take `N#CC1(NC(=O)[C@@H]2C[C@@H](S(=O)(=O)c3ccc(OCC(F)(F)F)cc3Cl)CN2C(=O)C2(c3ccc4ccccc4c3)CC2)CC1` [Example 348, (2S,4R)-4-[2-Chloro-4-(2,2,2-trifluoro-ethoxy)-benzenesulfonyl]-1-(1-naphthalen-2-yl-cyclopropanecarbonyl)-pyrrolidine-2-carboxylic acid (1-cyano-cyclopropyl)-amide]: the values for the IC50 in test [1] and in test [2] were 0.17 nM and 51 nM, respectively.
In the same order, the values of `N#CC1(NC(=O)[C@@H]2C[C@@H](S(=O)(=O)c3ccc(-n4cnc5cnccc54)cc3Cl)CN2C(=O)C2(c3ccc(Cl)cc3)CC2)CC1` [Example 349, (2S,4R)-4-(2-Chloro-4-imidazo[4,5-c]pyridin-1-yl-benzenesulfonyl)-1-[1-(4-chloro-phenyl)-cyclopropanecarbonyl]-pyrrolidine-2-carboxylic acid (1-cyano-cyclopropyl)-amide] are 0.03 nM and 220 nM.
In the same order, the values of `N#CC1(NC(=O)[C@@H]2C[C@@H](S(=O)(=O)c3ccc(-n4ccc5ncnc-5c4)cc3Cl)CN2C(=O)C2(c3ccc(Cl)cc3)CC2)CC1` [Example 350, (2S,4R)-4-(2-Chloro-4-imidazo[4,5-c]pyridin-5-yl-benzenesulfonyl)-1-[1-(4-chloro-phenyl)-cyclopropanecarbonyl]-pyrrolidine-2-carboxylic acid (1-cyano-cyclopropyl)-amide] are 0.06 nM and 260 nM.
Regarding `Cc1cc(-n2nc(C)cc2N2C[C@H](S(=O)(=O)c3ccccc3C(F)(F)F)C[C@H]2C(=O)NC2(C#N)CC2)cc(C)n1` [Example 351], the IC50 in test [1] was 19.5 nM; in test [2] it was at least 25000 nM.
As for `Cc1cc(N2C[C@H](S(=O)(=O)c3ccccc3C(F)(F)F)C[C@H]2C(=O)NC2(C#N)CC2)n(-c2ccnc3ccccc23)n1` [Example 352, (2S,4R)-1-(5-Methyl-2-quinolin-4-yl-2H-pyrazol-3-yl)-4-(2-trifluoromethyl-benzenesulfonyl)-pyrrolidine-2-carboxylic acid (1-cyano-cyclopropyl)-amide], the IC50 in test [1] came to 0.25 nM; in test [2], 7230 nM.
Consider `Cc1cc(N2C[C@H](S(=O)(=O)c3ccccc3Cl)C[C@H]2C(=O)NC2(C#N)CC2)n(C2CCC2)n1` [Example 353, (2S,4R)-4-(2-Chloro-benzenesulfonyl)-1-(2-cyclobutyl-5-methyl-2H-pyrazol-3-yl)-pyrrolidine-2-carboxylic acid (1-cyano-cyclopropyl)-amide], for which the IC50 was 0.99 nM in test [1] and 13500 nM in test [2].
On the same counts, the results for `N#CC1(NC(=O)C2CC(S(=O)(=O)c3ccccc3C(F)(F)F)CN2c2cccc(C(F)(F)F)c2)CC1` (centres unmarked) [Example 354, 4-(2-Trifluoromethyl-benzenesulfonyl)-1-(3-trifluoromethyl-phenyl)-pyrrolidine-2-carboxylic Acid (1-cyano-cyclopropyl)-amide] are 0.175 nM and at least 25000 nM.
On the same counts, the results for `CC(C)(C)c1ccccc1N1CC(S(=O)(=O)c2ccccc2C(F)(F)F)CC1C(=O)NC1(C#N)CC1` (centres unmarked) [Example 355, 1-(2-tert-Butyl-phenyl)-4-(2-trifluoromethyl-benzenesulfonyl)-pyrrolidine-2-carboxylic acid (1-cyano-cyclopropyl)-amide] are 2450 nM and at least 25000 nM.
On the same counts, the results for `CC(=O)Nc1cccc(-n2nc(C)cc2N2C[C@H](S(=O)(=O)c3ccccc3C(F)(F)F)C[C@H]2C(=O)NC2(C#N)CC2)c1` [Example 356, (2S,4R)-1-[2-(3-Acetylamino-phenyl)-5-methyl-2H-pyrazol-3-yl]-4-(2-trifluoromethyl-benzenesulfonyl)-pyrrolidine-2-carboxylic acid (1-cyano-cyclopropyl)-amide] are 0.06 nM and 31800 nM.
Take `CC(=O)Nc1cccc(-n2nc(C)cc2N2C[C@H](S(=O)(=O)c3ccccc3C(F)(F)F)C[C@@H]2C(=O)NC2(C#N)CC2)c1` [Example 357, (2R,4R)-1-[2-(3-Acetylamino-phenyl)-5-methyl-2H-pyrazol-3-yl]-4-(2-trifluoromethyl-benzenesulfonyl)-pyrrolidine-2-carboxylic acid (1-cyano-cyclopropyl)-amide]: the IC50 was 17.5 nM in test [1] and at least 25000 nM in test [2].
On the same counts, the results for `N#Cc1cccc(N2CC(S(=O)(=O)c3ccccc3C(F)(F)F)CC2C(=O)NC2(C#N)CC2)c1` (centres unmarked) [Example 358, 1-(3-Cyano-phenyl)-4-(2-trifluoromethyl-benzenesulfonyl)-pyrrolidine-2-carboxylic acid (1-cyano-cyclopropyl)-amide] are 0.5 nM and at least 25000 nM.
In the same order, the values of `Cc1cc(N2C[C@H](S(=O)(=O)c3ccccc3Cl)C[C@H]2C(=O)NC2(C#N)CC2)n(CCc2ccccc2)n1` [Example 359, (2S,4R)-4-(2-Chloro-benzenesulfonyl)-1-(5-methyl-2-phenethyl-2H-pyrazol-3-yl)-pyrrolidine-2-carboxylic acid (1-cyano-cyclopropyl)-amide] are 0.67 nM and 1050 nM.
On the same counts, the results for `N#CC1(NC(=O)[C@@H]2C[C@@H](S(=O)(=O)c3ccccc3C(F)(F)F)CN2C(=O)C2(c3ccc(Cl)cc3)CCC2)CC1` [Example 360, (2S,4R)-1-[1-(4-Chloro-phenyl)-cyclobutanecarbonyl]-4-(2-trifluoromethyl-benzenesulfonyl)-pyrrolidine-2-carboxylic acid (1-cyano-cyclopropyl)-amide] are 0.185 nM and 1180 nM.
For the molecule `N#CC1(NC(=O)[C@@H]2C[C@@H](S(=O)(=O)c3ccccc3C(F)(F)F)CN2C(=O)C2(c3ccc(Cl)nc3)CC2)CC1` [Example 361, (2S,4R)-1-[1-(6-Chloro-pyridin-3-yl)-cyclopropanecarbonyl]-4-(2-trifluoromethyl-benzenesulfonyl)-pyrrolidine-2-carboxylic acid (1-cyano-cyclopropyl)-amide], the IC50 amounted to 0.02 nM in test [1] and 995 nM in test [2].
Turning to `N#CC1(NC(=O)C2CC(S(=O)(=O)c3ccccc3C(F)(F)F)CN2C2CCOCC2)CC1` (centres unmarked) [Example 362, 1-(Tetrahydro-pyran-4-yl)-4-(2-trifluoromethyl-benzenesulfonyl)-pyrrolidine-2-carboxylic acid (1-cyano-cyclopropyl)-amide], the IC50 in test [1] is 380 nM; in test [2], at least 25000 nM.
On to `N#CC1(NC(=O)[C@@H]2C[C@@H](S(=O)(=O)c3ccccc3C(F)(F)F)CN2c2cc(C3CC3)nn2-c2ccc(C(F)(F)F)cc2)CC1` [Example 363, (2S,4R)-1-[5-Cyclopropyl-2-(4-trifluoromethyl-phenyl)-2H-pyrazol-3-yl]-4-(2-trifluoromethyl-benzenesulfonyl)-pyrrolidine-2-carboxylic acid (1-cyano-cyclopropyl)-amide], for which the half-inhibitory concentration (IC50) is 1.5 nM in test [1] and 10800 nM in test [2].
In the same order, the values of `CC(C)(C)OC(=O)N1CCC(N2CC(S(=O)(=O)c3ccccc3C(F)(F)F)CC2C(=O)NC2(C#N)CC2)CC1` (centres unmarked) [Example 364, 4-[2-(1-Cyano-cyclopropylcarbamoyl)-4-(2-trifluoromethyl-benzenesulfonyl)-pyrrolidin-1-yl]-piperidine-1-carboxylic acid tert-butyl ester] are 295 nM and at least 25000 nM.
For `N#CC1(NC(=O)[C@@H]2C[C@@H](S(=O)(=O)c3ccc(OCC(F)(F)F)cc3Cl)CN2CC2(c3ccc(Cl)cc3)CC2)CC1` [Example 365, (2S,4R)-1-[1-(4-Chloro-phenyl)-cyclopropylmethyl]-4-[2-chloro-4-(2,2,2-trifluoro-ethoxy)-benzenesulfonyl]-pyrrolidine-2-carboxylic acid (1-cyano-cyclopropyl)-amide], the IC50 in test [1] was 240 nM; in test [2], at least 25000 nM.
